In brackets after ≈: the same amount, converted by molar mass. One block for each molecule: values may come before it. Residues, ends and D or L forms follow the SMILES beside them.
Legend:
human NMUR2 receptor [1] = biological target: T1, human NMUR2 receptor (Homo sapiens, UniProt Q9GZQ4); assay: IP1 Gq HTRF assay, activation of human NMUR2 in buffer; type: cell-based; set-up: expressed in transfected cells; host or cells: CHO-K1; details: CHO-K1 cells expressing human NMUR2, stimulation buffer with 0.1% BSA; read-out: EC50 (hNMUR2) buffer
T1 sequence (Q9GZQ4 whole entry): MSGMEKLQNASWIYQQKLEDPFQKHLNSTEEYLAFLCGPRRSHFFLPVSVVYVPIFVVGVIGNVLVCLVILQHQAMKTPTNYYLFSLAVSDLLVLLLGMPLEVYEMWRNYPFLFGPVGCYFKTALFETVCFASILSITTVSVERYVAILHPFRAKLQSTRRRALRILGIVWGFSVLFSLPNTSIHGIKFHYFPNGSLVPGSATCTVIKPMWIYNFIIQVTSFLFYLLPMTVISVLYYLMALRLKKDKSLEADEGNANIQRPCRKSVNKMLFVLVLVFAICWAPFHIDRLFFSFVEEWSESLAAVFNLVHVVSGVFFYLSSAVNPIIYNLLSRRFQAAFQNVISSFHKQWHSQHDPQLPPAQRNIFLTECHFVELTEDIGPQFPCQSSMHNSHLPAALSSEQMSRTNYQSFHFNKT
How it was run: (§1)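 IP-One HTRF competition (665/620 nm ratio) read after 1 h agonist exposure at 37 °C in pH 7.4 HEPES/HBSS stimulation buffer containing 50 mM LiCl, 0.1% BSA, 1% DMSO. Cells: CHO-K1 stably expressing human NMUR2 or NMUR1. EC50 by 4-parameter nonlinear regression of 8-point curves.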

physchem = type: physicochemical
Description: Example 6: Solubility Determination
Peptides (as TFA-salts) were weighed out in a filter unit (Mini-UniPrep Syringeless Filter 0.45 μm, Whatman PVDF), and 0.1 M phosphate buffer at pH 6 to 8 was added to achieve 10 mg/mL final peptide concentration. The peptides were dissolved by shaking the filter units horizontally at 350 rpm for 2 hours at room temperature. Samples were then filtered to remove any insoluble particles. Controls were prepared by weighing out the corresponding peptide solid material and dissolving it in an appropriate vehicle (e.g. buffer or DMSO) to a final concentration of 1 mg/mL. Both, the control and sample were analyzed by reversed phase chromatography. The area under the peak of the sample was compared to the control and the solubility was calculated based on that ratio. The pH was measured and recorded for each sample.

human NMUR2 receptor [2] = biological target: T1, human NMUR2 receptor; assay: IP1 Gq HTRF assay, activation of human NMUR2 in human plasma; type: cell-based; set-up: expressed in transfected cells; host or cells: CHO-K1; details: CHO-K1 cells expressing human NMUR2, 100% human plasma; read-out: EC50 (hNMUR2) human plasma
How it was run: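 EC50 obtained via 4-parameter sigmoidal regression of HTRF IP-One signal (665 nm/620 nm), which falls as intracellular IP1 rises. Stimulation: 1 h, 37° C, peptides in human plasma plus 50 mM LiCl, 1% DMSO final, on NMUR2-expressing CHO-K1 cells, 8 concentrations.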

human NMUR1 receptor = biological target: T2, human NMUR1 receptor (Homo sapiens, UniProt Q9HB89); assay: IP1 Gq HTRF assay, activation of human NMUR1 in buffer; type: cell-based; details: CHO-K1 cells expressing human NMUR1, stimulation buffer with 0.1% BSA; read-out: EC50 (hNMUR1) buffer
T2 construct: expressed in transfected cells; host or cells: CHO-K1
T2 sequence (Q9HB89 1-426): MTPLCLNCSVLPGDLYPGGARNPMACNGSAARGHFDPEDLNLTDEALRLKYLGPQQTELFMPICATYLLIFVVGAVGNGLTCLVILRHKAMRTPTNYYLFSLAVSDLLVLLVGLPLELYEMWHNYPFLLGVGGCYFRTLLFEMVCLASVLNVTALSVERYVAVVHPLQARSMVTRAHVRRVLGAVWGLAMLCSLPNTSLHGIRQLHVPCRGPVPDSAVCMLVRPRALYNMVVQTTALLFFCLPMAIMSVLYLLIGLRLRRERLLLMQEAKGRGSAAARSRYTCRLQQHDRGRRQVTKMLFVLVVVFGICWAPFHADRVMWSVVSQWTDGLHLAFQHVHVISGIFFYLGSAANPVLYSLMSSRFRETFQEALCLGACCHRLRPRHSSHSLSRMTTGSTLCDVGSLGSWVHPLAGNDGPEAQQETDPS
How it was run: as §1

[3] = biological target: T3, human neuromedin U receptor 1 (human, UniProt Q9HB89 24-426); assay: cell-based or functional assay
T3 sequence (looked up): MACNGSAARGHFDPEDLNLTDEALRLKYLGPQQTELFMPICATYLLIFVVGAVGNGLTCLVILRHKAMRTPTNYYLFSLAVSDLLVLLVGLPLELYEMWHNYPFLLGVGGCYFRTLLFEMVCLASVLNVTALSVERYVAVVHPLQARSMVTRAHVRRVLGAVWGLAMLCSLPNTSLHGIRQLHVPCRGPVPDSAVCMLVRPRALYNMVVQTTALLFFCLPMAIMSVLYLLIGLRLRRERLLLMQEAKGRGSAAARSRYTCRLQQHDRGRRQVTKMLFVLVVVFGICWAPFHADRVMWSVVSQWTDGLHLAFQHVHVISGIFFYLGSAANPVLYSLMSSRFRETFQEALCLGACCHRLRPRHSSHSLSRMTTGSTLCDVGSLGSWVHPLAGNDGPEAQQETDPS

EC50 (hNMUR1) buffer [3]: 770 nM
B1: C18DA-gGlu3-Sar9-AEPipAc-Tyr-Phe-NMeLeu-Nle-Orn-Pro-Arg-Gly-NH2 (peptide)
peptide: EEEXXXXXXXXXXYFLXXPRG
HELM: PEPTIDE1{[O=C(O)CCCCCCCCCCCCCCCCC(=O)[*:2]].[gGlu].[gGlu].[gGlu].[Sar].[Sar].[Sar].[Sar].[Sar].[Sar].[Sar].[Sar].[Sar].[O=C(CN1CCN(CCN[*:1])CC1)[*:2]].Y.F.[meL].[Nle].[Orn].P.R.G.[am]}$$$$V2.0
SMILES: CCCC[C@H](NC(=O)[C@H](CC(C)C)N(C)C(=O)[C@H](Cc1ccccc1)NC(=O)[C@H](Cc1ccc(O)cc1)NC(=O)CN1CCN(CCNC(=O)CN(C)C(=O)CN(C)C(=O)CN(C)C(=O)CN(C)C(=O)CN(C)C(=O)CN(C)C(=O)CN(C)C(=O)CN(C)C(=O)CN(C)C(=O)CC[C@H](NC(=O)CC[C@H](NC(=O)CC[C@H](NC(=O)CCCCCCCCCCCCCCCCC(=O)O)C(=O)O)C(=O)O)C(=O)O)CC1)C(=O)N[C@@H](CCCN)C(=O)N1CCC[C@H]1C(=O)N[C@@H](CCCNC(=N)N)C(=O)NCC(N)=O

EC50 (hNMUR1) buffer [3]: 1700 nM
B2: C18DA-gGlu3-Sar12-AEPipAc-Tyr-Phe-NMeLeu-Nle-Dbu-Pro-Arg-Gly-NH2 (peptide)
peptide: EEEXXXXXXXXXXXXXYFLXXPRG
HELM: PEPTIDE1{[O=C(O)CCCCCCCCCCCCCCCCC(=O)[*:2]].[gGlu].[gGlu].[gGlu].[Sar].[Sar].[Sar].[Sar].[Sar].[Sar].[Sar].[Sar].[Sar].[Sar].[Sar].[Sar].[O=C(CN1CCN(CCN[*:1])CC1)[*:2]].Y.F.[meL].[Nle].[Dab].P.R.G.[am]}$$$$V2.0
SMILES: CCCC[C@H](NC(=O)[C@H](CC(C)C)N(C)C(=O)[C@H](Cc1ccccc1)NC(=O)[C@H](Cc1ccc(O)cc1)NC(=O)CN1CCN(CCNC(=O)CN(C)C(=O)CN(C)C(=O)CN(C)C(=O)CN(C)C(=O)CN(C)C(=O)CN(C)C(=O)CN(C)C(=O)CN(C)C(=O)CN(C)C(=O)CN(C)C(=O)CN(C)C(=O)CN(C)C(=O)CC[C@H](NC(=O)CC[C@H](NC(=O)CC[C@H](NC(=O)CCCCCCCCCCCCCCCCC(=O)O)C(=O)O)C(=O)O)C(=O)O)CC1)C(=O)N[C@@H](CCN)C(=O)N1CCC[C@H]1C(=O)N[C@@H](CCCNC(=N)N)C(=O)NCC(N)=O

EC50 (hNMUR1) buffer [3]: > 1000 nM
B3: C18DA-gGlu3-Sar15-AEPipAc-Tyr-Phe-NMeLeu-Nle-Dbu-Pro-Arg-Gly-NH2 (peptide)
peptide: EEEXXXXXXXXXXXXXXXXYFLXXPRG
HELM: PEPTIDE1{[O=C(O)CCCCCCCCCCCCCCCCC(=O)[*:2]].[gGlu].[gGlu].[gGlu].[Sar].[Sar].[Sar].[Sar].[Sar].[Sar].[Sar].[Sar].[Sar].[Sar].[Sar].[Sar].[Sar].[Sar].[Sar].[O=C(CN1CCN(CCN[*:1])CC1)[*:2]].Y.F.[meL].[Nle].[Dab].P.R.G.[am]}$$$$V2.0
SMILES: CCCC[C@H](NC(=O)[C@H](CC(C)C)N(C)C(=O)[C@H](Cc1ccccc1)NC(=O)[C@H](Cc1ccc(O)cc1)NC(=O)CN1CCN(CCNC(=O)CN(C)C(=O)CN(C)C(=O)CN(C)C(=O)CN(C)C(=O)CN(C)C(=O)CN(C)C(=O)CN(C)C(=O)CN(C)C(=O)CN(C)C(=O)CN(C)C(=O)CN(C)C(=O)CN(C)C(=O)CN(C)C(=O)CN(C)C(=O)CN(C)C(=O)CC[C@H](NC(=O)CC[C@H](NC(=O)CC[C@H](NC(=O)CCCCCCCCCCCCCCCCC(=O)O)C(=O)O)C(=O)O)C(=O)O)CC1)C(=O)N[C@@H](CCN)C(=O)N1CCC[C@H]1C(=O)N[C@@H](CCCNC(=N)N)C(=O)NCC(N)=O

EC50 (hNMUR1) buffer [3]: > 1000 nM
B4: C18DA-gGlu3-Sar9-AEPipAc-Tyr-Phe-NMeLeu-Nle-Dbu-NMeAla-Arg-Gly-NH2 (peptide)
peptide: EEEXXXXXXXXXXYFLXXARG
HELM: PEPTIDE1{[O=C(O)CCCCCCCCCCCCCCCCC(=O)[*:2]].[gGlu].[gGlu].[gGlu].[Sar].[Sar].[Sar].[Sar].[Sar].[Sar].[Sar].[Sar].[Sar].[O=C(CN1CCN(CCN[*:1])CC1)[*:2]].Y.F.[meL].[Nle].[Dab].[meA].R.G.[am]}$$$$V2.0
SMILES: CCCC[C@H](NC(=O)[C@H](CC(C)C)N(C)C(=O)[C@H](Cc1ccccc1)NC(=O)[C@H](Cc1ccc(O)cc1)NC(=O)CN1CCN(CCNC(=O)CN(C)C(=O)CN(C)C(=O)CN(C)C(=O)CN(C)C(=O)CN(C)C(=O)CN(C)C(=O)CN(C)C(=O)CN(C)C(=O)CN(C)C(=O)CC[C@H](NC(=O)CC[C@H](NC(=O)CC[C@H](NC(=O)CCCCCCCCCCCCCCCCC(=O)O)C(=O)O)C(=O)O)C(=O)O)CC1)C(=O)N[C@@H](CCN)C(=O)N(C)[C@@H](C)C(=O)N[C@@H](CCCNC(=N)N)C(=O)NCC(N)=O

More lines, now with the values behind:

Molecule: CCCC[C@H](NC(=O)[C@H](CC(C)C)N(C)C(=O)[C@H](Cc1ccccc1)NC(=O)[C@H](Cc1ccc(O)cc1)NC(=O)CN1CCN(CCNC(=O)CN(C)C(=O)CN(C)C(=O)CN(C)C(=O)CN(C)C(=O)CN(C)C(=O)CN(C)C(=O)CC[C@H](NC(=O)CC[C@H](NC(=O)CC[C@H](NC(=O)CCCCCCCCCCCCCCCCC(=O)O)C(=O)O)C(=O)O)C(=O)O)CC1)C(=O)N[C@@H](CCCNC(=N)N)C(=O)N1CCC[C@H]1C(=O)N[C@@H](CCCNC(=N)N)C(=O)NCC(N)=O [Compound 68, C18DA-gGlu3-Sar6-AEPipAc-Tyr-Phe-NMeLeu-Nle-Arg-Pro-Arg-Gly-NH2] (HELM PEPTIDE1{[O=C(O)CCCCCCCCCCCCCCCCC(=O)[*:2]].[gGlu].[gGlu].[gGlu].[Sar].[Sar].[Sar].[Sar].[Sar].[Sar].[O=C(CN1CCN(CCN[*:1])CC1)[*:2]].Y.F.[meL].[Nle].R.P.R.G.[am]}$$$$V2.0)
EC50 (human NMUR2 receptor [1]): 1.2 nM
solubility at 2 h (physchem; pH 7.6): 900 µg/mL (≈ 0.389 mM)
EC50 (human NMUR2 receptor [2]): 9.6 nM

Molecule: CCCC[C@H](NC(=O)[C@H](CC(C)C)N(C)C(=O)[C@H](Cc1ccccc1)NC(=O)[C@H](Cc1ccc(O)cc1)NC(=O)CN1CCN(CCNC(=O)CN(C)C(=O)CN(C)C(=O)CN(C)C(=O)CN(C)C(=O)CN(C)C(=O)CN(C)C(=O)CN(C)C(=O)CN(C)C(=O)CN(C)C(=O)CC[C@H](NC(=O)CC[C@H](NC(=O)CC[C@H](NC(=O)CCCCCCCCCCCCCCCCC(=O)O)C(=O)O)C(=O)O)C(=O)O)CC1)C(=O)N[C@@H](CCCN)C(=O)N(C)[C@@H](C)C(=O)N[C@@H](CCCNC(=N)N)C(=O)NCC(N)=O [Compound 70, C18DA-gGlu3-Sar9-AEPipAc-Tyr-Phe-NMeLeu-Nle-Orn-NMeAla-Arg-Gly-NH2] (HELM PEPTIDE1{[O=C(O)CCCCCCCCCCCCCCCCC(=O)[*:2]].[gGlu].[gGlu].[gGlu].[Sar].[Sar].[Sar].[Sar].[Sar].[Sar].[Sar].[Sar].[Sar].[O=C(CN1CCN(CCN[*:1])CC1)[*:2]].Y.F.[meL].[Nle].[Orn].[meA].R.G.[am]}$$$$V2.0)
EC50 (human NMUR2 receptor [1]): 2.5 nM
EC50 (human NMUR1 receptor): > 1000 nM
solubility at 2 h (physchem; pH 7.2): 8300 µg/mL (≈ 3.36 mM)
EC50 (human NMUR2 receptor [2]): 27.2 nM

Molecule: CCCC[C@H](NC(=O)[C@H](CC(C)C)N(C)C(=O)[C@H](Cc1ccccc1)NC(=O)[C@H](Cc1ccc(O)cc1)NC(=O)CN1CCN(CCNC(=O)CN(C)C(=O)CN(C)C(=O)CN(C)C(=O)CN(C)C(=O)CN(C)C(=O)CN(C)C(=O)CN(C)C(=O)CN(C)C(=O)CN(C)C(=O)CC[C@H](NC(=O)CC[C@H](NC(=O)CC[C@H](NC(=O)CCCCCCCCCCCCCCCCC(=O)O)C(=O)O)C(=O)O)C(=O)O)CC1)C(=O)N[C@@H](CCCNC(=N)N)C(=O)N1CCC[C@H]1C(=O)N[C@@H](CCCNC(=N)N)C(=O)NCC(N)=O [Compound 72, C18DA-gGlu3-Sar9-AEPipAc-Tyr-Phe-NMeLeu-Nle-Arg-Pro-Arg-Gly-NH2] (HELM PEPTIDE1{[O=C(O)CCCCCCCCCCCCCCCCC(=O)[*:2]].[gGlu].[gGlu].[gGlu].[Sar].[Sar].[Sar].[Sar].[Sar].[Sar].[Sar].[Sar].[Sar].[O=C(CN1CCN(CCN[*:1])CC1)[*:2]].Y.F.[meL].[Nle].R.P.R.G.[am]}$$$$V2.0)
EC50 (human NMUR2 receptor [1]): 0.9 nM
solubility at 2 h (physchem; pH 7.2): 9600 µg/mL (≈ 3.8 mM)
EC50 (human NMUR2 receptor [2]): 10.4 nM

Source: patent US20240279278A1, “NMU RECEPTOR 2 AGONISTS” (Boehringer Ingelheim International GmbH, priority 2023, published 2024)
